This is an account of results in patent publication US5795912A, “Therapeutic composition for corneal impairment” (Senju Pharmaceutical, Co., Ltd., priority 1997, dated 1998).

Series [1] has as its system rats. Description: LD50, p.o. (rats). In kind it is in vivo.
The test system of series [2] is rats. Kind of series: LD50, i.v. (rats). In kind it is in vivo.
Series [3] concerns UV-induced corneal lesion. Description: Inhibitory effect on UV-induced corneal lesions in rabbits (fluorescein penetration into the cornea, corneal epithelial barrier function). As to conditions: from Table 1 and FIG. 1. In kind it is in vivo, rabbit (white rabbits). The method, then: The inhibitory effect of the present compound on UV-induced corneal lesions in rabbits was evaluated. Test substance: L-Ascorbyl DL-α-tocopherylphosphate potassium (abbreviation: EPC-K). Method: White rabbits were used; 4 animals assigned to the present compound treatment group and 3 assigned to a control group (the nictitating membrane was excised beforehand).
For UV irradiation, Hoya-Schott's HLS200U (dominant wavelength 365 nm) equipped with a 200 W mercury-xenon lamp as the light source was used. Ushio Electric's Unimeter UIT-101 was used for the determination of luminous energy.
One eye of each rabbit was kept open with an eye speculum and set at a distance of 43 cm from the light source so that the irradiation energy would be 0.024 J/cm^2. […]
The degree of rabbit corneal lesion was evaluated by the following method^1). Using fluorescein as a tracer, the fluorescence intensity of the tracer dye penetrating into the cornea within a predetermined region was measured for a quantitative assessment of the barrier function of the corneal epithelium (The corneal epithelium has a barrier function^2) to restrict penetration of any substance into the deep layer of the cornea and when an erosion or other injury occurs in the corneal epithelium, this barrier function is compromised so that the penetration of the substance into the depth of the cornea is increased). […]

SMILES strings stand for the structures. Bounds are passed on as bounds.

As for `Cc1c(C)c2c(c(C)c1OP(=O)(O)OC1=C(O)[C@@H]([C@@H](O)CO)OC1=O)CCC(C)(CCCC(C)CCCC(C)CCCC(C)C)O2` (mixture of isomers) [EPC-K, L-ascorbyl DL-α-tocopheryl phosphate potassium], the LD50 in series [1] is not below 5000 mg/kg; in series [2] it was not below 100 mg/kg. The “inhibition of UV-induced corneal lesion (result in words)” value in series [3] was “effectively inhibits UV-induced corneal lesion”.

Broadly, the LD50 is the dose expected to kill half of the subjects tested. Lower therefore signals a more toxic substance.
